{"source": "patent US20050182220A1", "about": "“Novel functional norbornenes as initiators for radical polymerization, their polymeric derivatives and a process for producing the same” (priority 2004, published 2005)", "experiment": "Solubility in organic solvents", "format": "physicochemical"}
{"smiles": "CC(C)(Br)C(=O)NCC1CC2C=CC1C2", "note": "(stereo not drawn) [NBTMBr]", "values": [{"measurement": "Solubility: completely soluble in (solvents)", "setting": "at 60° C.", "value": "completely in N,N-dimethylacetamide (DMAc)"}, {"measurement": "Solubility: partially soluble in (solvents)", "setting": "at 60° C.", "value": "partially in toluene, benzene, hexane and N-methyl-2-pyrrolidinone (NMP)"}, {"measurement": "Solubility: soluble in (solvents)", "setting": "at room temperature", "value": "soluble in acetone, pyridine, ethanol, methanol, methylene chloride, tetrahydrofuran, N,N-dimethylformamide (DMF) and dimethylsulfoxide (DMSO)"}]}
